Where no end group is shown, it is not given here.
Legend:
JAK3 = molecular target: T1, JAK3 (Homo sapiens, UniProt P52333); assay: In vitro kinase assay JAK3; type: biochemical; conditions: ten times higher concentration than 0.1 μM
T1 construct: endogenous in cells
T1 sequence (P52333 1-1124): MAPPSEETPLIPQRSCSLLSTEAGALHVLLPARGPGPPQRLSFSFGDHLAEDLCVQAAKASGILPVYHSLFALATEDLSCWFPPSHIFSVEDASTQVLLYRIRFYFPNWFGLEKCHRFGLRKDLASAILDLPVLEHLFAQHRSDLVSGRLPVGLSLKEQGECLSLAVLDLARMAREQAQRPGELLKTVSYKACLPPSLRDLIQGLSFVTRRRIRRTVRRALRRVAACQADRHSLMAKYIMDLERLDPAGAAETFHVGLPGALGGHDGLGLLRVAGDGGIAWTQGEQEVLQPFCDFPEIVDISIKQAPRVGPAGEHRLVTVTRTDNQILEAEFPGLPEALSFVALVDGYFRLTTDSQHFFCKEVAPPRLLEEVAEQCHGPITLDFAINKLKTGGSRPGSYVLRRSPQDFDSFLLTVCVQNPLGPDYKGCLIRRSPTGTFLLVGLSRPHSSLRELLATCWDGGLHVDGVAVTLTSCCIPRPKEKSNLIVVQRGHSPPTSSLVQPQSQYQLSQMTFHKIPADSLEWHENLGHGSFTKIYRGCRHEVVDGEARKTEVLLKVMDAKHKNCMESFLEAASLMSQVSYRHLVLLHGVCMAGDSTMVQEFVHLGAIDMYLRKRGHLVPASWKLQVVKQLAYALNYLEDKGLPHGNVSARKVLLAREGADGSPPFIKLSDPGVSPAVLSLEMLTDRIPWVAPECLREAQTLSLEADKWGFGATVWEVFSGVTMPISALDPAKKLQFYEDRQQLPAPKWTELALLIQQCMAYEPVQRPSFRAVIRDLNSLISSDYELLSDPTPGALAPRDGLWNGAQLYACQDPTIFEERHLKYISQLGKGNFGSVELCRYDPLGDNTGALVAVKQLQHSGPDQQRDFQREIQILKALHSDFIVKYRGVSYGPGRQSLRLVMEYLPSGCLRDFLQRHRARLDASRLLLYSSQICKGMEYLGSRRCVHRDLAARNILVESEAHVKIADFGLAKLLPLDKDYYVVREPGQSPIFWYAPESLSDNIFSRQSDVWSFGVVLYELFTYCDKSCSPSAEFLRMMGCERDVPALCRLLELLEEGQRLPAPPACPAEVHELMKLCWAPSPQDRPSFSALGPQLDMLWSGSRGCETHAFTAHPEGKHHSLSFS
Procedure: As a specific substrate, the phosphorylation level of GSK-3[…] at Ser-9 was also evaluated. […] The decrease was specific to the AKT phosphorylation site on GSK-3[…] at Ser-9, since a change in the phosphorylation level of GSK-3[…] at Tyr-216 or GSK-3[…] at Tyr-279 was not observed. Moreover, the in vivo reduction of the phosphorylation of AKT substrates was more obvious at the injection site, since a significant change in the phosphorylation of AKT substrates in the frontal cortex or cerebellum between the two hemispheres was not observed. […] To test the specificity/selectivity of ZaTa as the inhibitor of AKT1 versus the other major kinases, a series of in vitro kinase assays was performed at IC50 for AKT1 and at ten times higher concentrations. A panel of the following 32 kinases was first tested in vitro using the active form of each kinase and a specific substrate: AKT2, AKT3, PKA, PKC[…], PKC, PI3K[…], PI3K[…], PI3K, SGK, PAK2, PAK3, SAPK2/p38, Abl, CaMKII, CDK1/cyclinB, CDK5/p35, CK1, CK2, CSK, GSK3[…], GSK3[…], JNK1[…]1, MAPK1, p70S6K, PDGFR[…], PDGFR[…], PDK1, PKG1[…], TrkB, JAK2, JAK3, and Syk. […] However, at ten times higher concentration, ZaTa inhibited AKT2 (63%), PI3K[…] (72%), p70S6K (64%), SGK (73%), PAK3 (83%), JAK3 (79%), TrkB (84%), and Abl (42%). […]

Abl = molecular target: T2, Abl (Mus musculus, UniProt P00520); assay: In vivo selectivity, western blot of phosphorylated substrate after injection into one hemisphere; conditions: versus DMSO hemisphere
T2 construct: from tissue; host or cells: mouse brain hemisphere (striatum injection)
Procedure: To analyze in vivo selectivity, ZaTa was injected into one hemisphere and DMSO in the other hemisphere, as above, and a series of western blot analyses was preformed with phospho-specific antibodies which recognize a phosphorylated substrate or each one of the kinases that ZaTa inhibited at higher concentrations in vitro. […] Given the high functional and structural homology between p70S6K and AKT, the in vivo inhibitory effect of ZaTa on p70S6K was contemplated. Furthermore, the in vivo effect of ZaTa on the phosphorylation levels of substrates for PKA, PKC, CDKs using phospho-specific antibodies recognizing the phosphorylated consensus sites of these kinases was analyzed. In contrast to the consistent decrease in phosphorylation of AKT substrates, significant changes in the phosphorylation level of PKA, PKC and CDKs substrates was not observed after in vivo injection of ZaTa.
Phosphorylation sites for kinases analyzed herein included Ser-235/236 S6 (a substrate for p70S6K), Tyr-207 CRKL (a substrate for Abl; Zipfel, et al. (2004) supra), Ser-241 PDK1 (a substrate for PI3K), Tyr-1022/1023 JAK1 (a substrate for JAK3; Wang, et al. (2003) supra), Ser-421 Huntingtin (a substrate for SGK; Rangone, et al. (2004) supra), Tyr-783 PLC (a substrate for TrkB; Middlemas, et al. (1994) supra), and Ser-338 cRaf (a substrate for PAK3; King, et al. (1998) supra).

T2 sequence (P00520 whole entry): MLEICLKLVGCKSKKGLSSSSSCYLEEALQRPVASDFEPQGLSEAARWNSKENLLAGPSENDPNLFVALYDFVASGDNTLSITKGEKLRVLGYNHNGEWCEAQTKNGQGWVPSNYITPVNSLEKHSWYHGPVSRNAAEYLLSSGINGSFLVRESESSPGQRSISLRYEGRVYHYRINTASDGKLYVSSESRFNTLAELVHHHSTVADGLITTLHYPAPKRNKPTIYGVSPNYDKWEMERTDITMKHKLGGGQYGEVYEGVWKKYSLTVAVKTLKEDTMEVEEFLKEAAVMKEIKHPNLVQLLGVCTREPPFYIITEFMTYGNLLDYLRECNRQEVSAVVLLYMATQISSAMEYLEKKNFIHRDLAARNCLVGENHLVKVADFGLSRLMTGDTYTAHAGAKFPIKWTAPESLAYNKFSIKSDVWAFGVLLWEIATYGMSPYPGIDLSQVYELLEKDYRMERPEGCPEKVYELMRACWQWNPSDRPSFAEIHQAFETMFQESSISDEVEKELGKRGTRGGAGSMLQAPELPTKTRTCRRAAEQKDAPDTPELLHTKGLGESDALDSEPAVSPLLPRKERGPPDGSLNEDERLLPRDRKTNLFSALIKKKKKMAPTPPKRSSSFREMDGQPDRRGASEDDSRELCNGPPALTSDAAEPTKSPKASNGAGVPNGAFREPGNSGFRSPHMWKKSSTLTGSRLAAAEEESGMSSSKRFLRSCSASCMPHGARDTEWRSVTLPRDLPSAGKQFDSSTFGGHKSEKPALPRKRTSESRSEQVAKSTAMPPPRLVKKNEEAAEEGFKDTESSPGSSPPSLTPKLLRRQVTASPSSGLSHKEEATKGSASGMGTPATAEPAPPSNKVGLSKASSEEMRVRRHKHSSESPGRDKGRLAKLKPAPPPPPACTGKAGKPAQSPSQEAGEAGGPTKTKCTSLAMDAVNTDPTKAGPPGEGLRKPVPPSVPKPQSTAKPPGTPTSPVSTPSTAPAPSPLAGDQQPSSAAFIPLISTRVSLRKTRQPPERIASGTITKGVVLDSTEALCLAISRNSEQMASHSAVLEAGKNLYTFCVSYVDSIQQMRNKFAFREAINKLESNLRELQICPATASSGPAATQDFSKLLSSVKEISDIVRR

AKRVKGRTWTLCGTPEY [ZaTa]
inhibition of JAK3 (JAK3): 79%
in vivo inhibition of Abl (Abl): weaker in vivo inhibition

Reference: patent US8541670B2, “Compositions and methods for inhibiting tumor cell growth” (priority 2007, dated 2013)
